Data set [1] deals with p53 responsive β-lactamase reporter in HCT116 cells. Kind of data set: p53 beta-lactamase reporter gene cellular functional assay. The following applies: p53 reporter assay, HCT116, read-out: Cellular (µM), cellular activity (EC50). Format: cell-based. The protocol: HCT116 cells were stably transfected with a p53 responsive β-lactamase reporter and were seeded into a 384-well plate at a density of 8000 cells per well. Cells were maintained in McCoy’s 5A Medium with 10% fetal bovine serum (FBS), Blasticidin, and Penicillin/Streptomycin. The cells were incubated overnight, followed by removal of cell growth media and replacement with Opti-MEM either containing 0% FBS or 10% FBS. […] The final working concentration of DMSO was 0.5%. β-lactamase activity was detected using the ToxBLAzer Dual Screen (Invitrogen), as per the manufacturer’s instructions. Measurements were made using the Envision multiplate reader (Perkin–Elmer).

Data set [2] in a line: Circular dichroism (CD) α-helicity. Format: physicochemical. Conditions: for Helicity (%): CD of free peptide, 25 °C, 1 mM Hepes pH 7.4, 5% methanol. The protocol: A total of 5 µL of the 10 mM stock peptide was mixed with 45 µL of 100% methanol, and dried for 2 h in the SpeedVac concentrator (Thermo Scientific). The dried peptide was reconstituted in a buffer (1 mM Hepes pH 7.4 and 5% methanol) to a concentration of 1 mM. The peptide sample was placed in a quartz cuvette with a path length of 0.2 cm. The peptide concentration was determined by the absorbance of the peptide at […]. The CD spectrum was recorded from 300 to 190 nm using the Chirascan-plus qCD machine (Applied Photophysics, Surrey, UK), at 25 °C. All experiments were done in duplicates. The CD spectrum was converted to mean residue ellipticity, before deconvolution and estimation of the secondary structure components of the peptide using the CDNN software (distributed by Applied Photophysics).

Another data set addresses T1, human Mdm2 1–125 (Homo sapiens, UniProt Q00987).
T1 construct: GST (N); His6 (internal); TEV cleavage site ENLYFQG (internal); made in house; host or cells: Escherichia coli BL21 (DE3) Rosetta T1R
As to the kind of experiment: Mdm2 binding assay (competitive fluorescence anisotropy/polarization). Conditions: competitive fluorescence polarization, read-out: Mdm2 (nM), Mdm2 binding (Kd). How it is done: The TEV (tobacco etch virus) cleavage site was changed from ENLYFQS to ENLYFQG to give a fusion protein with the following sequence:
Titrations were carried out with the concentration of Mdm2 held constant at 250 nM and the labeled peptide at 50 nM. The competing molecules were then titrated against the complex of the FAM-labeled peptide and protein. Apparent Kd values were determined by fitting the experimental data to the equations shown below:(2) r=r0+(rb−r0)×2(d^2−3e)cos(θ/3)−9/3Kd1+2(d^2−3e)cos(θ/3)−dd=Kd1+Kd2+[L]st+[L]t−[P]te=([L]t−[P]t)Kd1+([L]st−[P]t)Kd2+Kd1Kd2f=−Kd1Kd2[P]tθ=arcos[−2d^3+9de−27f/2(d^2−3e)^3] where [L]st and [L]t denote labeled ligand and total unlabeled ligand input concentrations, respectively. Kd2 is the dissociation constant of the interaction between the unlabeled ligand and the protein. In all competition experiments, it was assumed that [P]t > [L]st, otherwise considerable amounts of free labeled ligand would always be present and would interfere with measurements. Kd1 is the apparent Kd for the labeled peptide used and was experimentally determined as described in the previous paragraph. The FAM-labeled peptide was dissolved in dimethyl sulfoxide (DMSO) at 1 mM and diluted into the experimental buffer. Readings were carried out with an Envision Multilabel Reader (PerkinElmer). Experiments were carried out in PBS (2.7 mM KCl, 137mM NaCl, 10 mM Na2HPO4, and 2 mM KH2PO4 (pH 7.4)) and 0.1% Tween 20 buffer. All titrations were carried out in triplicate. Curve-fitting was carried out using Prism 4.0 (GraphPad). […] Negative control titrations of the ligands under investigation were also carried out with the fluorescently labeled peptide (in the absence of Mdm2) to ensure no interactions were occurring between the ligands and the FAM-labeled peptide.

The record followed here is PMC6632053, “Incorporation of Putative Helix-Breaking Amino Acids in the Design of Novel Stapled Peptides: Exploring Biophysical and Cellular Permeability Properties” (Molecules, 2019).

Read-outs that look alike come from different tables or passages of the source. Bridge positions count the residues as written; N and C are the ends. Square brackets hold non-standard residues; d marks the D form. Peptide text beside a SMILES is read from it. R8 = C=CCCCCCC[C@@](C)(N)C(=O)O; Cba = N[C@@H](CC1CCC1)C(=O)O; S5 = C=CCCC[C@](C)(N)C(=O)O

T1 sequence (Q00987 with tags, fused parts or gaps): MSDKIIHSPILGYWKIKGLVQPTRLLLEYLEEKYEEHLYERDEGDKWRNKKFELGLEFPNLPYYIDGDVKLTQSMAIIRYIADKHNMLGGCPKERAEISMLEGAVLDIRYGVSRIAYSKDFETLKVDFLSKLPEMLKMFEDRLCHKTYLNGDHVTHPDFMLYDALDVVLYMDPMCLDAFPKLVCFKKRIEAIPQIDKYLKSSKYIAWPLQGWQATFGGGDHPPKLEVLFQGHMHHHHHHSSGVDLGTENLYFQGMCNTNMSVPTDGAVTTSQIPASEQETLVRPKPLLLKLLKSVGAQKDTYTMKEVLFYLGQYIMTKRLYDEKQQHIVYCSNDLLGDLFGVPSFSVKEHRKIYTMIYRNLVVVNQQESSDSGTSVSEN

`CC(=O)N[C@H](CC(C)C)C(=O)N[C@H](C(=O)N[C@@H](Cc1ccccc1)C(=O)N[C@]1(C)CCCCCCC=CCCC[C@@](C)(C(=O)N[C@@H](CO)C(=O)N[C@@H](C)C(=O)N[C@@H](C)C(N)=O)NC(=O)[C@H](CC2CCC2)NC(=O)[C@H](CC(C)C)NC(=O)[C@H](CCC(N)=O)NC(=O)[C@H](Cc2c[nH]c3ccccc23)NC(=O)[C@H](Cc2ccc(O)cc2)NC(=O)[C@H](CCC(=O)O)NC1=O)[C@@H](C)O` [L1(D-Leu)]: in data set [1] (Table 1), the concentration giving a half-maximal response (EC50) stood at 0.6 µM. Moreover, the “Helicity (%)” value in data set [2] (Table 1) was 44.1%. For the same molecule, the Kd on human Mdm2 1–125 (Table 1) was 31 nM.
For `CC(=O)N[C@@H](CC(C)C)C(=O)N[C@@H](C(=O)N[C@@H](Cc1ccccc1)C(=O)N[C@]1(C)CCCCCCC=CCCC[C@@](C)(C(=O)N[C@@H](CO)C(=O)N[C@@H](C)C(=O)N[C@@H](C)C(N)=O)NC(=O)[C@H](CC2CCC2)NC(=O)[C@H](CC(C)C)NC(=O)[C@H](CCC(N)=O)NC(=O)[C@H](Cc2c[nH]c3ccccc23)NC(=O)[C@H](Cc2ccc(O)cc2)NC(=O)[C@H](CCC(=O)O)NC1=O)[C@H](C)O` [T2(D-Thr)] the same measures were 3.4 µM, 40.7% and 136 nM.
For `CC(=O)N[C@@H](CC(C)C)C(=O)N[C@H](C(=O)N[C@@H](Cc1ccccc1)C(=O)N[C@]1(C)CCCCCCC=CCCC[C@@](C)(C(=O)N[C@@H](CO)C(=O)N[C@@H](C)C(=O)N[C@@H](C)C(N)=O)NC(=O)[C@H](CC2CCC2)NC(=O)[C@H](CC(C)C)NC(=O)[C@H](C)NC(=O)[C@H](Cc2c[nH]c3ccccc23)NC(=O)[C@H](Cc2ccc(O)cc2)NC(=O)[C@H](CCC(=O)O)NC1=O)[C@@H](C)O` [Peptide Q8A] the same measures were 0.1 µM, 33.4% and 26.5 nM.
For `CC(=O)N[C@@H](CC(C)C)C(=O)N[C@H](C(=O)N[C@@H](Cc1ccccc1)C(=O)NC(C)(C)C(=O)N[C@@H](CCC(=O)O)C(=O)N[C@@H](Cc1ccc(O)cc1)C(=O)N[C@@H](Cc1c[nH]c2ccccc12)C(=O)N[C@H](CCC(N)=O)C(=O)N[C@@H](CC(C)C)C(=O)N[C@@H](CC1CCC1)C(=O)NC(C)(C)C(=O)N[C@@H](CO)C(=O)N[C@@H](C)C(=O)N[C@@H](C)C(N)=O)[C@@H](C)O` [Linear Q8(D-Gln)] the same measures were above 50 µM, 21.8% and 119 nM.
Turning to `CC(=O)N[C@@H](CC(C)C)C(=O)N[C@H](C(=O)N[C@@H](Cc1ccccc1)C(=O)N[C@]1(C)CCCCCCC=CCCC[C@@](C)(C(=O)N[C@@H](CO)C(=O)N[C@@H](C)C(=O)N[C@@H](C)C(N)=O)NC(=O)[C@H](CC2CCC2)NC(=O)[C@H](CC(C)C)NC(=O)[C@H](CCC(N)=O)NC(=O)[C@H](Cc2c[nH]c3ccccc23)NC(=O)[C@H](Cc2ccc(O)cc2)NC(=O)[C@H](C)NC1=O)[C@@H](C)O` [Peptide E5A] (Ac-LTF[R8]AYWQL[Cba][S5]SAA-NH2; staple 4-11), the EC50 in data set [1] (Table 1) was found to be 0.18 µM. For the same molecule, the “Helicity (%)” value in data set [2] (Table 1) amounted to 27.6%. Moreover, on human Mdm2 1–125 (Table 1), the Kd turned out to be 29.8 nM.
For `CC(=O)N[C@@H](CC(C)C)C(=O)N[C@H](C(=O)N[C@@H](Cc1ccccc1)C(=O)NC(C)(C)C(=O)N[C@@H](CCC(=O)O)C(=O)N[C@@H](Cc1ccc(O)cc1)C(=O)N[C@@H](Cc1c[nH]c2ccccc12)C(=O)N[C@@H](CCC(N)=O)C(=O)N[C@H](CC(C)C)C(=O)N[C@@H](CC1CCC1)C(=O)NC(C)(C)C(=O)N[C@@H](CO)C(=O)N[C@@H](C)C(=O)N[C@@H](C)C(N)=O)[C@@H](C)O` [Linear L9(D-Leu)], in data set [1] (Table 1), the EC50 is above 50 µM. Further, the “Helicity (%)” value in data set [2] (Table 1) is 19.7%. In addition, the Kd at human Mdm2 1–125 (Table 1) was determined as 88 nM.
The matching figures for `CC(=O)N[C@@H](CC(C)C)C(=O)N[C@@H](C)C(=O)N[C@@H](Cc1ccccc1)C(=O)N[C@]1(C)CCCCCCC=CCCC[C@@](C)(C(=O)N[C@@H](CO)C(=O)N[C@@H](C)C(=O)N[C@@H](C)C(N)=O)NC(=O)[C@H](CC2CCC2)NC(=O)[C@H](CC(C)C)NC(=O)[C@H](CCC(N)=O)NC(=O)[C@H](Cc2c[nH]c3ccccc23)NC(=O)[C@H](Cc2ccc(O)cc2)NC(=O)[C@H](CCC(=O)O)NC1=O` [Peptide T2A] (Ac-LAF[R8]EYWQL[Cba][S5]SAA-NH2; staple 4-11): 1 µM, 36.2% and 21.3 nM.
As to `CC(=O)N[C@@H](CC(C)C)C(=O)N[C@H](C(=O)N[C@@H](Cc1ccccc1)C(=O)N[C@]1(C)CCCCCCC=CCCC[C@@](C)(C(=O)N[C@@H](CO)C(=O)N[C@@H](C)C(=O)N[C@@H](C)C(N)=O)NC(=O)[C@H](CC2CCC2)NC(=O)[C@H](CC(C)C)NC(=O)[C@H](CCC(N)=O)NC(=O)[C@@H](Cc2c[nH]c3ccccc23)NC(=O)[C@H](Cc2ccc(O)cc2)NC(=O)[C@H](CCC(=O)O)NC1=O)[C@@H](C)O` [W6(D-Trp) (MP-384)], the EC50 in data set [1] (Table 1) came out at 0.6 µM. Moreover, the “Helicity (%)” value in data set [2] (Table 1) is on record as 41.0%. Besides, the Kd at human Mdm2 1–125 (Table 1) is 30 nM.
For `CC(=O)N[C@@H](CCCCN=[N+]=[N-])C(=O)NCCC(=O)N[C@@H](CC(C)C)C(=O)N[C@H](C(=O)N[C@@H](Cc1ccccc1)C(=O)N[C@]1(C)CCCCCCC=CCCC[C@@](C)(C(=O)N[C@@H](CO)C(=O)N[C@@H](C)C(=O)N[C@@H](C)C(N)=O)NC(=O)[C@H](CC2CCC2)NC(=O)[C@H](CCC(N)=O)NC(=O)[C@H](C)NC(=O)[C@H](Cc2c[nH]c3ccccc23)NC(=O)[C@H](Cc2ccc(O)cc2)NC(=O)CNC1=O)[C@@H](C)O` [Peptide E5G], in data set [1] (Table 2), the EC50 is 0.26 µM. Moreover, in data set [2], the “α-helicity by CD” value was 28.6%. The “Helicity (%)” value in data set [2] (Table 2) is 28.6%. Further, at human Mdm2 1–125 (Table 2), the Kd turned out to be 61.8 nM.
With `CC(=O)N[C@@H](CCCCN=[N+]=[N-])C(=O)NCCC(=O)N[C@@H](CC(C)C)C(=O)N[C@H](C(=O)N[C@@H](Cc1ccccc1)C(=O)N[C@]1(C)CCCCCCC=CCCC[C@@](C)(C(=O)N[C@@H](CO)C(=O)N(C)[C@@H](C)C(=O)N[C@@H](C)C(N)=O)NC(=O)[C@H](CC2CCC2)NC(=O)[C@H](CCC(N)=O)NC(=O)[C@H](C)NC(=O)[C@H](Cc2c[nH]c3ccccc23)NC(=O)[C@H](Cc2ccc(O)cc2)NC(=O)[C@H](CCC(=O)O)NC1=O)[C@@H](C)O` [A13(N-methyl L-Ala)], the EC50 in data set [1] (Table 2) is 1.6 µM. In addition, the “Helicity (%)” value in data set [2] (Table 2) came out at 38.6%. Also, on human Mdm2 1–125 (Table 2), the Kd stood at 10 nM.
As for `CC(=O)N[C@@H](CCCCN=[N+]=[N-])C(=O)NCCC(=O)N[C@@H](CC(C)C)C(=O)N[C@H](C(=O)N[C@@H](Cc1ccccc1)C(=O)N[C@]1(C)CCCCCCC=CCCC[C@@](C)(C(=O)N[C@@H](CO)C(=O)N[C@@H](C)C(=O)N[C@@H](C)C(N)=O)NC(=O)[C@H](CC2CCC2)NC(=O)[C@H](CCC(N)=O)NC(=O)[C@H](C)N(C)C(=O)[C@H](Cc2c[nH]c3ccccc23)NC(=O)[C@H](Cc2ccc(O)cc2)NC(=O)[C@H](CCC(=O)O)NC1=O)[C@@H](C)O` [A8(N-methyl L-Ala)], in data set [1] (Table 2), the EC50 was above 50 µM. Besides, the “α-helicity by CD” value in data set [2] is reported as below 30%. In data set [2] (Table 2), the “Helicity (%)” value was found to be 16.9%. Besides, the equilibrium dissociation constant (Kd) at human Mdm2 1–125 (Table 2) amounted to 671 nM.
On to `CC(=O)N[C@@H](CC(C)C)C(=O)N[C@H](C(=O)N[C@@H](Cc1ccccc1)C(=O)N[C@]1(C)CCCCCCC=CCCC[C@@](C)(C(=O)N[C@@H](CO)C(=O)N[C@@H](C)C(=O)N[C@@H](C)C(N)=O)NC(=O)[C@H](CC2CCC2)NC(=O)[C@@H](CC(C)C)NC(=O)[C@H](CCC(N)=O)NC(=O)[C@H](Cc2c[nH]c3ccccc23)NC(=O)[C@H](Cc2ccc(O)cc2)NC(=O)[C@H](CCC(=O)O)NC1=O)[C@@H](C)O` [L9(D-Leu)], for which, in data set [1] (Table 1), the EC50 was determined as 1.1 µM. The “Helicity (%)” value in data set [2] (Table 1) was determined as 39.0%. Also, the equilibrium dissociation constant (Kd) on human Mdm2 1–125 (Table 1) was found to be 30 nM.
